Drawing on a melting point compilation (Tetko et al.; mined from patent text by program, amines drawn as free bases though some values may be those of a salt), this text covers melting point for 91 molecules.

Each structure is given as a SMILES string.

Usually melting point stands for the temperature of the solid-liquid transition. The molecule `Nc1n[nH]c(NC(=O)c2ccc3ccccc3c2)n1` came in with a melting point of 192 to 194 °C.
With `C=CCOc1cc(C(=O)O)cc(S(C)(=O)=O)c1OCC=C`, the melting point turned out to be 163 °C.
The value for `N#Cc1ncn2c1N(C(=O)CN1CCN(C(c3ccccc3)c3ccc(Cl)cc3)CC1)CC=C2c1cccc(C(F)(F)F)c1` (stereo unspecified) was 105 to 107 °C; that for `CC(O)(CCCCl)c1ccc(-c2cccc(F)c2)cc1` (stereo unspecified) was 70 to 72 °C; that for `Cc1c(C#N)sc2nc(CCCc3ccccc3)nc(N3CCN(C)CC3)c12` was 101 to 103 °C.
In the case of `Cc1nc2ncnn2c(N2CCC(C)CC2)c1-c1ccc(F)cc1Cl`, the melting point was 236 °C.
The figure for `Cc1ccc(S(=O)(=O)N2[C@@H](CCC#N)CC[C@H]2c2ccc(F)cc2)cc1` (racemic) is 86 °C; for `O=[N+]([O-])c1cccc(S(=O)(=O)N(CCO)CCO)c1` it is 100 to 102 °C.
As for `CCOC(=O)C1=C(N)OC(C)=C(C(C)=O)C1c1cccc([N+](=O)[O-])c1` (stereo unspecified), the melting point was 181 °C.
The value for `CCCc1nc(NC(=O)N(C)C)nc(N2CCOCC2)n1` was 110 to 111 °C.
`O=C(O)C(Cc1ccccc1)Oc1ccc(-c2ccc(-c3c(Cc4ccccc4)sc4ccccc34)cc2)cc1Br` (stereo unspecified) displayed a melting point of 81 to 83 °C.
In turn, `NC(=O)c1cnc(Oc2ccc(C3OCCO3)cc2F)cn1` returned a melting point of 169 to 172 °C.
The figure for `CC(C)(CO)CCCCCCCCCC(C)(C)CO` is 52 to 54 °C; for `NC1=C(C(=O)c2cccs2)C2=C(CCC2)S1=O` (stereo unspecified) it is 133 to 134 °C; for `CC(C)(C)OC(=O)N1CCC[C@@H](Nc2nccc(-c3c(-c4cccc(C#N)c4)nc4sccn34)n2)C1` it is 108 to 110 °C.
For the molecule `CCOCC(=O)Nc1nc(-c2ccco2)c(C(=O)C2CCOCC2)s1`, the melting point was 121 to 126 °C.
Take `Nc1nc(N)c(Br)c(OCCOCP(=O)(O)O)n1`: the melting point was found to be 218 °C.
Molecule `CCCCCN1C(=O)C(c2ccc3c(c2)OCO3)c2cccnc21` (stereo unspecified) registered a melting point of 75 to 77 °C.
The value for `CCCn1c(=O)c(=O)[nH]c2cc([N+](=O)[O-])c(-n3ccc(=O)cc3)cc21` was over 300 °C.
`CNC(=O)N1C(=S)C2(CCCCC2)NC12CCCCC2`: the melting point was in the range of 127 to 129 °C.
Consider `O=C(O)c1ccc(-c2cc3cccnc3c(-c3cccc4nonc34)n2)cc1`, for which the melting point was over 300 °C.
The value for `N#Cc1cc(C(=O)O)cnc1Br` was 170 to 172 °C; that for `CC(C)(C)C1=CC(C(F)(F)F)=CCC1(O)C(C)(C)C` (stereo unspecified) was 78 to 80 °C.
As for `CN(N)c1nc(C(F)(F)F)nc2ccccc12`, the melting point lay within 130 to 132 °C.
As for `Cc1cc(-c2ccc(-c3ccc(F)cc3)cc2)n[nH]c1=O`, the melting point was in the range of 247 to 248 °C.
In the case of `Cc1c(C(=O)c2ccccc2)c(NC(=O)CNO)cn1C`, the melting point fell in the range of 140 to 142 °C.
Take `Cn1nc(O)c(C(F)F)c1Cl`: the melting point lay within 122 to 123 °C.
The molecule `NNC1=NOCc2ccc(Cl)cc21` returned a melting point of 148 to 149 °C.
The value for `CCC(Nc1nc(NC(C)=O)nc(C(C)F)n1)c1ccccc1` (stereo unspecified) was 118 °C.
As for `CCOC(=O)c1cc2cc(Cl)c(F)cc2[nH]1`, the melting point lay within 160 to 164 °C.
Regarding `CS(=O)(=O)c1ccc(-n2nc(-c3ccc(F)cc3)cc2C(F)(F)F)cc1`, the melting point fell in the range of 158 to 160 °C.
In turn, `CC(C)Oc1c(C(N)=O)oc2ccccc12` showed a melting point of 82 to 83 °C.
The value for `CCOC(=O)c1cc(S(N)(=O)=O)c(Cl)cc1NCc1ccco1` was 163 to 165 °C; that for `CNC(=O)N(C)c1ccc(Cl)c(COc2cccn3c(Br)c(C)nc23)c1Cl` was 192 to 193 °C.
As for `O=C(c1ccc(C(F)(F)F)cc1)c1cc(O)c(O)c([N+](=O)[O-])c1`, the melting point was in the range of 116 to 118 °C.
For `c1ccc(COc2ccc3ccc(OCc4ccccc4)cc3c2)cc1`, the melting point amounted to 161 °C.
The figure for `COc1cc2c3c(c1)nc(SCc1ccc4ccccc4n1)n3CCC2` is 89 to 91 °C.
`COc1ccc(C(C(Br)c2ccc(F)cc2)C(F)(F)F)cc1` (stereo unspecified): the melting point lay in the range of 73 to 94 °C.
Take `N#CC(C#N)=C1C=C(C=Cc2ccc(N)cc2)OC(C=Cc2ccc(N)cc2)=C1`: the melting point was determined as 249 °C.
Consider `O=C(CCC1CCCCC1)NC1N=C(c2ccccc2)c2ccccc2-n2c1noc2=O` (stereo unspecified), for which the melting point was determined as 226 °C.
In the case of `CC(=O)c1ccccc1CC1CNC(=O)O1` (stereo unspecified), the melting point was 85 to 86 °C.
`CC(C)n1nc(-c2sc(C(=O)NCc3ccccn3)nc2-c2ccccc2F)ccc1=O` yielded a melting point of 190 to 191 °C.
As for `COc1cc2ccc3nc4ccccc4cc3c2cc1OC`, the melting point lay in the range of 190 to 192 °C.
Regarding `CN(C)C(=O)N1N=C2c3cc(F)ccc3OC[C@@H]2[C@@H]1c1ccccc1` (racemic), the melting point is 117 °C.
The value for `Nc1nc(Cl)c2ncn(OCC(O)CO)c2n1` (stereo unspecified) was 155 to 158 °C; that for `COc1ncnc(N2CCCC2)c1Cc1cccc(F)c1` was 74 to 76 °C.
The molecule `COc1ccc([N+](=O)[O-])c(C=C2C(=O)NC(=O)N2C)c1` yielded a melting point of 257 to 260 °C.
In turn, `COC(=O)C1=C(N)OC(C)=C(C(C)=O)C1c1cccc([N+](=O)[O-])c1` (stereo unspecified) returned a melting point of 160 to 163 °C.
The figure for `CC1(CCl)COC(N)=N1` (stereo unspecified) is 61 to 62 °C; for `COc1ccc(OC)c2c(=O)cc(C(=O)O)sc12` it is 210 to 212 °C.
As for `O=C(CCl)NC(C(=O)O)c1ccc2c(c1)CCS2` (stereo unspecified), the melting point is 173 to 175 °C.
The value for `CON(Cc1ccc(Cl)c(Cl)c1)C(=O)C1=C(O)C(=O)N(C)C1` was 149 °C; that for `CC(=O)OC1CC2=CCC3C4CCCC4(C)CCC3C2(C)C(OC(C)=O)C1` (stereo unspecified) was 163 to 165 °C; that for `COC(=O)C1N=C(c2ccccc2F)c2cc(Cl)ccc2-n2c1cnc2C` (stereo unspecified) was 203 to 205 °C.
Molecule `Cc1cc(Cl)ccc1-c1cccc2c1OC(CN)CN2C` (stereo unspecified) showed a melting point of 109 to 112 °C.
As to `CC(C)[C@H](NC(=O)OCc1csc(N2CCCC2)n1)C(=O)N[C@@H](Cc1ccccc1)[C@@H](O)C[C@H](Cc1ccccc1)NC(=O)OCc1cncs1`, the melting point fell in the range of 165 to 167 °C.
`COc1cccc([C@H]2O[C@H](CC(=O)NC(C)CC(=O)O)C(=O)N(CC(C)(C)C)c3ccc(Cl)cc32)c1OC` (stereo partly specified) returned a melting point of 128 to 130 °C.
`Cc1cc(-c2ccccc2)c2c(n1)C(C(N)=S)CCC2` (stereo unspecified) came in with a melting point of 174 to 175 °C.
With `CCOC(=O)c1cc(=O)c2c3c(ccc2o1)C(=O)CC(C(=O)OC)=N3`, the melting point was in the range of 166 to 170 °C.
The value for `CC(C)c1ccnc(C(=O)c2[nH]c3ccc(Cl)cc3c2CC(=O)O)c1` was 227 to 228 °C.
Molecule `Cc1cc2c(ccc3ccsc32)c2ccccc12` came in with a melting point of 130 to 131 °C.
With `CCOc1nc2cccc(C(Br)Br)c2c(=O)o1`, the melting point was 98 to 99 °C.
The molecule `O=C1Cn2ncnc2-c2cc(F)ccc2N1` gave a melting point of 232 to 238 °C.
Molecule `N#Cc1cccc(OCc2ccccc2)c1[N+](=O)[O-]` registered a melting point of 94 to 95 °C.
The value for `OC(=S)c1cccnc1` was 84 to 86 °C.
`CCCCOc1ccc2c(c1)C(N(C)S(C)(=O)=O)C(O)C(C)(C)O2` (stereo unspecified): the melting point fell in the range of 138 to 140 °C.
`COC(C)(OC)OC(=O)N[C@@H](Cc1cn(S(=O)(=O)c2ccc(C)cc2)cn1)C(=O)O` returned a melting point of 120 °C.
In the case of `CN(C)c1ccccc1CS(=O)c1nc2c(n1-c1ccccn1)CCC2` (stereo unspecified), the melting point was in the range of 140 to 141 °C.
Regarding `Cn1c([N+](=O)[O-])cnc1COc1ccc(S(C)(=O)=O)cc1`, the melting point was 155 °C.
The value for `COc1ccccc1OCCNCCCc1c[nH]c2ccccc12` was 101 to 102 °C.
For the molecule `CN1C(=O)[C@@H](NC(=O)[C@H](N)Cc2ccccc2)N=C(C2CCCCC2)c2ccccc21`, the melting point is 75 to 78 °C.
Molecule `CCN(CC)c1ccc(N)cc1C#N` had a melting point of 63 to 66 °C.
Molecule `COCOc1c(OC)cc(/C=C/C(=O)/C=C/c2cc(OC)c(OCOC)c(OC)c2)cc1OC` yielded a melting point of 146 to 148 °C.
Take `N#CCCNC(=S)C1CC(CF)(CF)Oc2ccc([N+](=O)[O-])cc21` (stereo unspecified): the melting point is 183 to 184 °C.
`Cc1cc(C)c2c3ccccc3c(=O)n(CCN(C)C)c2n1` showed a melting point of 128 to 130 °C.
With `CN(C)CCNc1ccc(NCCN(C)C)c2c1C(=O)c1c(O)ccc(O)c1C2=O`, the melting point is 236 to 238 °C.
For the molecule `O=C(NO)c1ccc(OC(=O)C2(c3ccccc3)CCCCC2)cc1`, the melting point lay in the range of 142 to 144 °C.
The figure for `Nc1nc(O)nc2nc(-c3ccco3)nn12` is over 300 °C; for `CC(C)OC(=O)N1c2cncnc2NC(=O)C1C` (racemic) it is 160 to 162 °C; for `CCCS(=O)c1cccc(-c2nc(=O)c3ccccc3s2)n1` (stereo unspecified) it is 175 °C.
Turning to `CC(C)c1c(CO)c(-c2ccc(F)cc2)c2n1CCCC2`, the melting point lay within 97 to 99 °C.
As to `O=C(c1ccc2n1Cc1ccccc1N(S(=O)(=O)c1ccc(Br)cc1)C2)C(Cl)(Cl)Cl`, the melting point fell in the range of 182 to 183 °C.
`FC(F)(F)c1nnnn1-c1ccc(OCc2ccccc2)c(Br)c1`: the melting point lay within 66 to 68 °C.
Consider `CC(=O)Nc1ccc(C2=NNC(=O)NC2C)cc1Cl` (stereo unspecified), for which the melting point lay within 250 to 252 °C.
The figure for `Cc1ccccc1NC(=O)c1cc(Br)c(OCc2ccccc2)cc1OCc1ccccc1` is 174 to 176 °C.
As for `CCCCOc1ccc(CC(=O)N[C@@H](C(=O)O)[C@@H](C)O)cc1`, the melting point lay in the range of 90 to 94 °C.
Consider `O=C(CCCCC1(C(=O)O)CCC1)CCCCC1(C(=O)O)CCC1`, for which the melting point was 69 to 70 °C.
The figure for `C#CCn1cc(Cc2ccc(C(=O)OC)cc2OC)c2cc(NC(=O)CC3CCCC3)ccc21` is 160 to 161 °C; for `COC[C@H]1CN(C2=Nc3ccccc3Nc3sc(C)cc32)CCN1C` it is 76 to 80 °C; for `COC(=O)CCOc1ccc(CNC(=O)[C@@H]2Cc3ccccc3N2S(=O)(=O)c2ccc(C(C)(C)C)cc2)cc1` it is 50 to 52 °C.
Turning to `CC(C)(C)c1ccc(S(=O)(=O)N2c3ccccc3C[C@H]2C(=O)NCc2ccc(OCCC(=O)O)cc2)cc1`, the melting point amounted to 75 °C.
